We go through 7 compounds from ChEMBL document CHEMBL1201862, “PubChem BioAssay data set” (2004).

Calls of active or inactive are those of the source.

Experiment [1] can be described thus: Trypanosoma cruzi growth suppression in host cells – NIH3T3 host cells, beta-gal luminescence, confirmation (AID 2044).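 Further: intracellular parasites grown in NIH/3T3 mouse fibroblasts as host cells; luminescent beta-galactosidase reporter signal from transgenic T. cruzi replicating inside host cells; inhibitors lower the luminescence signal.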 It is filed as functional, cell-based.
In experiment [2] the target is T1, Replicative DNA helicase DnaB (Mycobacterium tuberculosis, UniProt P9WMR3).
T1 sequence (P9WMR3 whole entry): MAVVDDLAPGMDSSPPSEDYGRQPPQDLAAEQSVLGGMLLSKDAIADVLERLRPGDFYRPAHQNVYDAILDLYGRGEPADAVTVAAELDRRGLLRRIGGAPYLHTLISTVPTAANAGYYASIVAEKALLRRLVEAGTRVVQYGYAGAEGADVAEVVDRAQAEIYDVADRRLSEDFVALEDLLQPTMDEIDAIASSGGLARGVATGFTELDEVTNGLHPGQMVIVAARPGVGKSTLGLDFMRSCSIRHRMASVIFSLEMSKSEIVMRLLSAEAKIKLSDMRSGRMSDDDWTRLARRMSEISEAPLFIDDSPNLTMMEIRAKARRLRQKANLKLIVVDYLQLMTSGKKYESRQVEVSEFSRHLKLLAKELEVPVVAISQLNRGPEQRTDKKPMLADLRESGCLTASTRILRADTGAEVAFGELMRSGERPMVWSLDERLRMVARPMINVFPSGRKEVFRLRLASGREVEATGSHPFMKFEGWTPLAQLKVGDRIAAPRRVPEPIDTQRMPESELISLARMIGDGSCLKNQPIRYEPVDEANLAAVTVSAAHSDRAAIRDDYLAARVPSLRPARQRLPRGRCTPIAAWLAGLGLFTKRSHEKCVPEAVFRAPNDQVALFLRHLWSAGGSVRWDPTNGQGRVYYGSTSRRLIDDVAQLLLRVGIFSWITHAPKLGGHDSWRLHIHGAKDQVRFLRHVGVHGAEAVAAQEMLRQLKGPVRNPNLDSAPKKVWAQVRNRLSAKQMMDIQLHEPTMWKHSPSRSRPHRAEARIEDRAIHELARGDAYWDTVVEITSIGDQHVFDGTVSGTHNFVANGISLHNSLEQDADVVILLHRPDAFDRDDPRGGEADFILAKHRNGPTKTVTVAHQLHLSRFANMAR
Briefly: DnaB intein splicing inhibitors, dose response, biochemical, cell-free fluorescence (AID 449749). It is filed as functional.

In experiment [3] the target is T2, Protein RecA (Mycobacterium tuberculosis, UniProt P9WHJ3).
T2 sequence (P9WHJ3 whole entry): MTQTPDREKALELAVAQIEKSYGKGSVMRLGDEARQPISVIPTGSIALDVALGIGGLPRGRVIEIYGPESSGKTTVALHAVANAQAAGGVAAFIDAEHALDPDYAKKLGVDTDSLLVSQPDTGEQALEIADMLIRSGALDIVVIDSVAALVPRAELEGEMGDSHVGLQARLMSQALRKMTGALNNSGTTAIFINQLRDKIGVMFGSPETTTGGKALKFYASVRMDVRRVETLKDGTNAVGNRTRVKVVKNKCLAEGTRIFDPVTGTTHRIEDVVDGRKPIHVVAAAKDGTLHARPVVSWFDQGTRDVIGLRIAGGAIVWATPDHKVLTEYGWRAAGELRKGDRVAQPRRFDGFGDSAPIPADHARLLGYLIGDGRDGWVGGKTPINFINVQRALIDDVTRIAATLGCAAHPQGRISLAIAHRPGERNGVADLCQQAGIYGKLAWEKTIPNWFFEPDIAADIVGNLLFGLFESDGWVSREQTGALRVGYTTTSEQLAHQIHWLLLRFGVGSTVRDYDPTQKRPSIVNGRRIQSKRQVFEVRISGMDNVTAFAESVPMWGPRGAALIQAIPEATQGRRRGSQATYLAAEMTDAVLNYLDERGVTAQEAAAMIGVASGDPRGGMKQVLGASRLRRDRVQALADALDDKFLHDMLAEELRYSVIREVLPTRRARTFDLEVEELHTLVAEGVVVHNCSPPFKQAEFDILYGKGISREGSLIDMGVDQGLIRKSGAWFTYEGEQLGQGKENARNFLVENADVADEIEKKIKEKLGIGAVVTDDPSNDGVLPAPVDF
Briefly: Fluorescence Cell-Free Homogeneous Dose Retest to Identify Inhibitors of RecA-Intein Splicing Activity. [Related pubchem assays (depositor defined):AID2097, AID2223, AID489010, AID492950]. It is filed as functional.

The test system of experiment [4] is INS1. The experiment in a line: INS-1E survival protection against cytokine death – cell-based, luminescence, retest, dose response (AID 449756).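 Further: cell death triggered by IL-1 beta plus TNF-alpha plus IFN-gamma mixture; protective hits raise ATP signal compared with cytokine alone wells.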 It is filed as functional. The note with it: Rattus norvegicus.
Experiment [5] deals with T3, Streptokinase A (Streptococcus pyogenes serotype M1, UniProt P10520).
T3 sequence (P10520 whole entry): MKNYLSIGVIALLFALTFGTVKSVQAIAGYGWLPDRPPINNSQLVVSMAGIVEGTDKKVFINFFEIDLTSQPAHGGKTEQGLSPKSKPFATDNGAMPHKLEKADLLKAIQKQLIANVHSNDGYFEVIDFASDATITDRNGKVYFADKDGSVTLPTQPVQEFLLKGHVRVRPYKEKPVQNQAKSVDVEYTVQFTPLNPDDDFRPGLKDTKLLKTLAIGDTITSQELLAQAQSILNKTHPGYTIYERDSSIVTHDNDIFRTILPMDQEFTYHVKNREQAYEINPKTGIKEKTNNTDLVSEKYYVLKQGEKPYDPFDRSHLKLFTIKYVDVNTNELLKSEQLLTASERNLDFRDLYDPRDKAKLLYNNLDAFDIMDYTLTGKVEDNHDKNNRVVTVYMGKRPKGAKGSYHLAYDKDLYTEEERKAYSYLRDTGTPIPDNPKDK
The experiment in a line: viability-normalized secreted streptokinase activity reduction – plasminogen activation absorbance, OD405, dose response (AID 1914).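 Further: secreted streptokinase activity via plasminogen activation per viability signal from cell pellet.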 It is filed as functional, Streptococcus pyogenes M1 GAS.

Experiment [6] has as its target T4, Sentrin-specific protease 8 (Homo sapiens, UniProt Q96LD8).
T4 sequence (Q96LD8 whole entry): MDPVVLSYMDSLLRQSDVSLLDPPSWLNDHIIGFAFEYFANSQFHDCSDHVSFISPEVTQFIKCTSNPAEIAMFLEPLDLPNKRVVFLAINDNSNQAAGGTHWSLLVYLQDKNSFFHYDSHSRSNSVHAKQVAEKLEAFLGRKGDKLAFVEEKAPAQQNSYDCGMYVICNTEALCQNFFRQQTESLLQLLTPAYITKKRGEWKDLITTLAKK
It is filed as functional.

Experiment [7] deals with T5, Caspase-6 (Homo sapiens, UniProt P55212).
T5 sequence (P55212 whole entry): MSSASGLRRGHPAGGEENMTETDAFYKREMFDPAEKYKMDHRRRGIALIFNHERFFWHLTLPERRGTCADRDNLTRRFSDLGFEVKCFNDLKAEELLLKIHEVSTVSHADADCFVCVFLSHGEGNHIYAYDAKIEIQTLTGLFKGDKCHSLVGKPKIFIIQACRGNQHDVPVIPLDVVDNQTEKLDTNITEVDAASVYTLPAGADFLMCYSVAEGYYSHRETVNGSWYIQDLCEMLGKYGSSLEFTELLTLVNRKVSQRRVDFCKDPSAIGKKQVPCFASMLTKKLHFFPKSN
The experiment in a line: inhibition of CASP6 peptide cleavage – biochemical, VEID-R110 fluorescence, cherry-pick, dose response (AID 720632).

As to `O=C1C(Cl)=C(NCCN2CCCCC2)C(=O)c2ccccc21`, the concentration for a half-maximal effect (EC50) was 0.509 µM (active) in experiment [1] and 7.31 µM (active) in experiment [3]. The AC50 in experiment [2] was 14 µM (active); in experiment [4] it was 4.41 µM (active).
For the compound `CC(/C=C1\SC(=S)N(NS(=O)(=O)c2ccccc2)C1=O)=C\c1ccccc1`, the EC50 in experiment [5] is 21.4 µM (active).
Regarding `CCN1/C(=C/c2ccc3cc(C)ccc3[n+]2CC)Sc2cc(C)c(C)cc21`, the EC50 in experiment [5] is > 150 µM (not active); in experiment [1], < 0.1 µM (active).
For `COc1cc(NCCCNC(C)C)c2nccc(C)c2c1`, the IC50 in experiment [6] was 3.89 µM (active). Moreover, the AC50 in experiment [7] is 33.5 µM (active).
Take `Cc1oc2c(c1C(=O)c1ccccc1)C(=O)C(=O)c1ccccc1-2`: the half-maximal activity concentration (AC50) in experiment [4] was 2.71 µM (active).
Consider `CSc1ccc(C=NNc2ccc(S(=O)(=O)Nc3ccccc3C(=O)O)cc2[N+](=O)[O-])cc1`, for which the half-maximal activity concentration (AC50) in experiment [7] is 6.66 µM (active).
With `O=C1CCCC2=C1C1(O)C(=O)c3ccccc3C1(O)O2` (centres undefined), in experiment [2], the AC50 was 5.49 µM (active). For the same compound, the EC50 in experiment [3] is 11.5 µM (active). The IC50 in experiment [6] is 2.52 µM (active).
